Data on 1 compound can be found in ChEMBL document CHEMBL1128715, “Synthesis, resolution, and biological evaluation of the four stereoisomers of 4-methylglutamic acid: selective probes of kainate receptors” (J Med Chem, 1995).

The assay addresses Glutamate receptor ionotropic, NMDA 2C (Rattus norvegicus, UniProt Q00961). The experiment in a line: Ability to inhibit [3H]CGS-19,755 binding to NMDA receptors.

Chain of Glutamate receptor ionotropic, NMDA 2C (Q00961 whole entry): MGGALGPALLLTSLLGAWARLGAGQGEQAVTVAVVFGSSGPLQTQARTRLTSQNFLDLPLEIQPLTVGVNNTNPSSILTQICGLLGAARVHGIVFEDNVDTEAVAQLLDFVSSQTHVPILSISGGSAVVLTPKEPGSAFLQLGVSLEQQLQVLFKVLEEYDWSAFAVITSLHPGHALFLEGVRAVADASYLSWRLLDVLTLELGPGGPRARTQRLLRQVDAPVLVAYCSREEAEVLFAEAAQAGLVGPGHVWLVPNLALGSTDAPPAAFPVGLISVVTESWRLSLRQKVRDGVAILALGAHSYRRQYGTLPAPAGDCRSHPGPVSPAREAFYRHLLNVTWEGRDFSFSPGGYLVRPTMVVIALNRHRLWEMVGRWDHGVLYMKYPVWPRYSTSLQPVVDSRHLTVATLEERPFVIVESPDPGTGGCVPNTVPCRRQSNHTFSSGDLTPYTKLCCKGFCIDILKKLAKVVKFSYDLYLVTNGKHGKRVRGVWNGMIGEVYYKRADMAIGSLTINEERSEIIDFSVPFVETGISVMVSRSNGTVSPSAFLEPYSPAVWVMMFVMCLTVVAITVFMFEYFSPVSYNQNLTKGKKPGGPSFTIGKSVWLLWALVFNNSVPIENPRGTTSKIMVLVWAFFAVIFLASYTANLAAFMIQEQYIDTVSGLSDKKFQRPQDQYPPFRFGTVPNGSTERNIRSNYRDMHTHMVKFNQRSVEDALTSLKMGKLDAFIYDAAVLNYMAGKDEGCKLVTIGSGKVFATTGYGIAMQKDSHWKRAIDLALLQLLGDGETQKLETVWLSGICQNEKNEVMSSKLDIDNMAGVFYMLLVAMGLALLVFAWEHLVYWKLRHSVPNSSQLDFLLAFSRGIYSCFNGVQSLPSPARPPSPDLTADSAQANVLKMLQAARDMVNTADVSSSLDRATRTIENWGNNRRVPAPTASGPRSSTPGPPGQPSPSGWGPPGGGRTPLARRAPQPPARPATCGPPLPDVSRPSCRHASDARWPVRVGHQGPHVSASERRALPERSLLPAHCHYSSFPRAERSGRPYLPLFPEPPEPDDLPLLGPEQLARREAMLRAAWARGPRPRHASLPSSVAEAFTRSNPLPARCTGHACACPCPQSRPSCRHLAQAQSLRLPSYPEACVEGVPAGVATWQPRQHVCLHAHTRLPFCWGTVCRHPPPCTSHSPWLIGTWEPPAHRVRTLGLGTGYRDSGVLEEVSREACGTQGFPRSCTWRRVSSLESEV

Broadly, the IC50 is the concentration at which inhibition is half-maximal. Read a low IC50 as greater potency in that assay. Turning to `C[C@H](C[C@H](N)C(=O)O)C(=O)O` [2S,4R-4-METHYLGLUTAMATE], the IC50 was above 7 µM.
